Activity and inhibition data for two compounds are collected here from ChEMBL document CHEMBL4219192, “Structural analysis and antioxidant activity of the glycoside from Imperial Chrysanthemum” (Bioorg Med Chem Lett, 2018).

The source made the active and inactive calls. The calls are words filed in the database; no cut-off is given here.

Format in all cases: functional
Assay [1] can be described thus: Antioxidant activity assessed as ABTS radical scavenging activity at 2.5 mg/ml after 6 mins relative to control.
The nature of assay [2]: Antioxidant activity assessed as inhibition of superoxide radical generation up to 0.6 mg/ml after 4 mins by pyrogallol autoxidation method relative to control.
Assay [3] in a line: Antioxidant activity assessed as hydroxyl radical scavenging activity at 2.5 mg/ml preincubated for 20 mins followed by salicylic acid addition measured after 60 mins by fenton reaction method relative to control.
Assay [4] can be described thus: Antioxidant activity assessed as DPPH radical scavenging activity up to 0.6 mg/ml after 30 mins by absorbance method relative to control. (In general: DPPH is a stable violet radical that fades when it is reduced.)
Assay [5] in a line: Antioxidant activity assessed as hydroxyl radical scavenging activity preincubated for 20 mins followed by salicylic acid addition measured after 60 mins by fenton reaction method relative to control.
The nature of assay [6]: Antioxidant activity assessed as inhibition of superoxide radical generation at 2.5 mg/ml after 4 mins by pyrogallol autoxidation method relative to control.
Assay [7] can be described thus: Antioxidant activity assessed as inhibition of superoxide radical generation after 4 mins by pyrogallol autoxidation method.
Assay [8] is described as follows: Antioxidant activity assessed as DPPH radical scavenging activity at 2.5 mg/ml after 30 mins by absorbance method relative to control.

As a reminder, the inhibition is the change of the read-out against control, counted positive when it falls. Take `O=C1O[C@H]([C@@H](O)CO)C(O)=C1O`: the Activity turned out to be 96.8% in assay [1] and 94.9% in assay [3]. Moreover, the inhibition entry in assay [2] was “Active”. In assay [4], the outcome was Active.
For the compound `OCOC1COC(S)(O[C@@H]2O[C@H](CO)[C@@H](O)[C@H](O)[C@H]2O)C1OCO` (stereo not given in full), the Activity entry in assay [5] is “Dose-dependent effect”; in assay [1] it was 83.3%; in assay [3] it was 76.2%; in assay [8] it was 83.9%. For the same compound, the inhibition in assay [6] is 73.9%; in assay [7], “Dose-dependent effect”.
